Measured values: patent publication US20230085307A1, “PYRIDAZINONE COMPOUND AND HERBICIDE” (NISSAN CHEMICAL CORPORATION, priority 2019, published 2023)

Tests used:
barnyard grass [1] = test: Test Example 4: herbicidal effect by soil treatment (Table 19, symbol H); type: in vivo, barnyard grass (Echinochloa crus-galli); conditions: amount of applied herbicide 320 g/ha
In short: (§1)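 In this soil treatment, the formulated compound reached the seeds only through the soil: seeds were buried about 1.5 cm deep in sterilized diluvial soil, then the diluted emulsion was sprayed over the surface. After three weeks at 25° C. to 30° C. in a greenhouse, effects were graded on criteria from an earlier test.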

velvetleaf [2] = test: Test Example 4: herbicidal effect by soil treatment (Table 19, symbol M); type: in vivo, velvetleaf (Abutilon theophrasti); conditions: amount of applied herbicide 320 g/ha
In short: as §1

Italian ryegrass [3] = test: Test Example 4: herbicidal effect by soil treatment (Table 19, symbol K); type: in vivo, Italian ryegrass (Lolium multiflorum); conditions: amount of applied herbicide 320 g/ha
In short: as §1

green foxtail [4] = test: Test Example 5: herbicidal effect by foliage application, plastic box (Table 20, symbol G); type: in vivo, green foxtail (Setaria viridis); conditions: foliage application, 320 g/ha
In short: (§2)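 Plants were sown into sterilized diluvial soil under about 1.5 cm cover and kept in a greenhouse at 25° C. to 30° C. Fourteen days on, foliage received an even spray of the diluted emulsion. Herbicidal or crop effect was judged three weeks afterwards.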

redroot pigweed [5] = test: Test Example 4: herbicidal effect by soil treatment (Table 19, symbol N); type: in vivo, redroot pigweed (Amaranthus retroflexus); conditions: amount of applied herbicide 320 g/ha
In short: as §1

persian speedwell [6] = test: Test Example 4: herbicidal effect by soil treatment (Table 19, symbol R); type: in vivo, Persian speedwell (Veronica persica); conditions: amount of applied herbicide 320 g/ha
In short: as §1

chickweed [7] = test: Test Example 5: herbicidal effect by foliage application, plastic box (Table 20, symbol P); type: in vivo, common chickweed (Stellaria media); conditions: foliage application, 320 g/ha
In short: as §2

chickweed [8] = test: Test Example 4: herbicidal effect by soil treatment (Table 19, symbol P); type: in vivo, common chickweed (Stellaria media); conditions: amount of applied herbicide 320 g/ha
In short: as §1

barnyard grass [9] = test: Test Example 5: herbicidal effect by foliage application, plastic box (Table 20, symbol H); type: in vivo, barnyard grass (Echinochloa crus-galli); conditions: foliage application, 320 g/ha
In short: as §2

velvetleaf [10] = test: Test Example 5: herbicidal effect by foliage application, plastic box (Table 20, symbol M); type: in vivo, velvetleaf (Abutilon theophrasti); conditions: foliage application, 320 g/ha
In short: as §2

Chinese sprangletop = test: Test Example 3: herbicidal effect by foliage application, Wagner pot (Table 18, symbol D); type: in vivo, chinese sprangletop (Leptochloa chinensis); conditions: amount of applied herbicide 320 g/ha
In short: (§3)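 Plants were sown in alluvial soil held under 0.1–0.5 cm standing water and grown 14 days in a greenhouse at 25–30 °C. An emulsifiable formulation, water-diluted to the set dose, was then sprayed onto the foliage, and effects were scored three weeks later using previously defined criteria.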

redroot pigweed [11] = test: Test Example 5: herbicidal effect by foliage application, plastic box (Table 20, symbol N); type: in vivo, redroot pigweed (Amaranthus retroflexus); conditions: foliage application, 320 g/ha
In short: as §2

windgrass [12] = test: Test Example 4: herbicidal effect by soil treatment (Table 19, symbol L); type: in vivo, windgrass (Apera spica-venti); conditions: amount of applied herbicide 320 g/ha
In short: as §1

wild oat [13] = test: Test Example 4: herbicidal effect by soil treatment (Table 19, symbol I); type: in vivo, wild oat (Avena fatua); conditions: amount of applied herbicide 320 g/ha
In short: as §1

lambsquarters [14] = test: Test Example 4: herbicidal effect by soil treatment (Table 19, symbol O); type: in vivo, lambsquarters (Chenopodium album); conditions: amount of applied herbicide 320 g/ha
In short: as §1

windgrass [15] = test: Test Example 5: herbicidal effect by foliage application, plastic box (Table 20, symbol L); type: in vivo, windgrass (Apera spica-venti); conditions: foliage application, 320 g/ha
In short: as §2

false cleavers [16] = test: Test Example 4: herbicidal effect by soil treatment (Table 19, symbol Q); type: in vivo, false cleavers (Galium spurium); conditions: amount of applied herbicide 320 g/ha
In short: as §1

persian speedwell [17] = test: Test Example 5: herbicidal effect by foliage application, plastic box (Table 20, symbol R); type: in vivo, Persian speedwell (Veronica persica); conditions: foliage application, 320 g/ha
In short: as §2

southern crabgrass [18] = test: Test Example 4: herbicidal effect by soil treatment (Table 19, symbol F); type: in vivo, southern crabgrass (Digitaria ciliaris); conditions: amount of applied herbicide 320 g/ha
In short: as §1

wild oat [19] = test: Test Example 5: herbicidal effect by foliage application, plastic box (Table 20, symbol I); type: in vivo, wild oat (Avena fatua); conditions: foliage application, 320 g/ha
In short: as §2

barnyard grass [20] = test: Test Example 3: herbicidal effect by foliage application, Wagner pot (Table 18, symbol H); type: in vivo, barnyard grass (Echinochloa crus-galli); conditions: amount of applied herbicide 320 g/ha
In short: as §3

rice flat sedge = test: Test Example 3: herbicidal effect by foliage application, Wagner pot (Table 18, symbol E); type: in vivo, rice flat sedge (Cyperus iria); conditions: amount of applied herbicide 320 g/ha
In short: as §3

southern crabgrass [21] = test: Test Example 5: herbicidal effect by foliage application, plastic box (Table 20, symbol F); type: in vivo, southern crabgrass (Digitaria ciliaris); conditions: foliage application, 320 g/ha
In short: as §2

blackgrass [22] = test: Test Example 5: herbicidal effect by foliage application, plastic box (Table 20, symbol J); type: in vivo, blackgrass (Alopecurus myosuroides); conditions: foliage application, 320 g/ha
In short: as §2

Italian ryegrass [23] = test: Test Example 5: herbicidal effect by foliage application, plastic box (Table 20, symbol K); type: in vivo, Italian ryegrass (Lolium multiflorum); conditions: foliage application, 320 g/ha
In short: as §2

blackgrass [24] = test: Test Example 4: herbicidal effect by soil treatment (Table 19, symbol J); type: in vivo, blackgrass (Alopecurus myosuroides); conditions: amount of applied herbicide 320 g/ha
In short: as §1

false cleavers [25] = test: Test Example 5: herbicidal effect by foliage application, plastic box (Table 20, symbol Q); type: in vivo, false cleavers (Galium spurium); conditions: foliage application, 320 g/ha
In short: as §2

green foxtail [26] = test: Test Example 4: herbicidal effect by soil treatment (Table 19, symbol G); type: in vivo, green foxtail (Setaria viridis); conditions: amount of applied herbicide 320 g/ha
In short: as §1

lambsquarters [27] = test: Test Example 5: herbicidal effect by foliage application, plastic box (Table 20, symbol O); type: in vivo, lambsquarters (Chenopodium album); conditions: foliage application, 320 g/ha
In short: as §2

[28] = evaluated three weeks after application

SMILES: COc1ccc(F)cc1-c1sc2ccc(C)cc2c1-c1c(O)c(C)nn(C)c1=O [2-150]
- H: barnyard grass, herbicidal effect rating (barnyard grass [1]): 0 (Herbicidal rate of 5% or less (almost no effect))
- M: velvetleaf, herbicidal effect rating (velvetleaf [2]): 1 (Herbicidal rate of 5% or more and less than 20%)
- K: Italian ryegrass, herbicidal effect rating (Italian ryegrass [3]): 0 (Herbicidal rate of 5% or less (almost no effect))
- herbicidal effect on G: green foxtail (criteria 0-5) (green foxtail [4]; [28]): 0 (Herbicidal rate of 5% or less (almost no effect))
- N: redroot pigweed, herbicidal effect rating (redroot pigweed [5]): 3 (Herbicidal rate of 40% or more and less than 70%)
- R: persian speedwell, herbicidal effect rating (persian speedwell [6]): 5 (Herbicidal rate of 90% or more (almost completely withered))
- herbicidal effect on P: chickweed (criteria 0-5) (chickweed [7]; [28]): 5 (Herbicidal rate of 90% or more (almost completely withered))
- P: chickweed, herbicidal effect rating (chickweed [8]): 4 (Herbicidal rate of 70% or more and less than 90%)
- herbicidal effect on H: barnyard grass (criteria 0-5) (barnyard grass [9]; [28]): 0 (Herbicidal rate of 5% or less (almost no effect))
- herbicidal effect on M: velvetleaf (criteria 0-5) (velvetleaf [10]; [28]): 4 (Herbicidal rate of 70% or more and less than 90%)
- herbicidal effect on D: Chinese sprangletop (Chinese sprangletop): 2 (Herbicidal rate of 20% or more and less than 40%)
- herbicidal effect on N: redroot pigweed (criteria 0-5) (redroot pigweed [11]; [28]): 5 (Herbicidal rate of 90% or more (almost completely withered))
- L: windgrass, herbicidal effect rating (windgrass [12]): 0 (Herbicidal rate of 5% or less (almost no effect))
- I: wild oat, herbicidal effect rating (wild oat [13]): 0 (Herbicidal rate of 5% or less (almost no effect))
- O: lambsquarters, herbicidal effect rating (lambsquarters [14]): 2 (Herbicidal rate of 20% or more and less than 40%)
- herbicidal effect on L: windgrass (criteria 0-5) (windgrass [15]; [28]): 3 (Herbicidal rate of 40% or more and less than 70%)
- Q: false cleavers, herbicidal effect rating (false cleavers [16]): 0 (Herbicidal rate of 5% or less (almost no effect))
- herbicidal effect on R: persian speedwell (criteria 0-5) (persian speedwell [17]; [28]): 5 (Herbicidal rate of 90% or more (almost completely withered))
- F: southern crabgrass, herbicidal effect rating (southern crabgrass [18]): 0 (Herbicidal rate of 5% or less (almost no effect))
- herbicidal effect on I: wild oat (criteria 0-5) (wild oat [19]; [28]): 1 (Herbicidal rate of 5% or more and less than 20%)
- herbicidal effect on H: barnyard grass (barnyard grass [20]): 4 (Herbicidal rate of 70% or more and less than 90%)
- herbicidal effect on E: rice flat sedge (rice flat sedge): 5 (Herbicidal rate of 90% or more (almost completely withered))
- herbicidal effect on F: southern crabgrass (criteria 0-5) (southern crabgrass [21]; [28]): 0 (Herbicidal rate of 5% or less (almost no effect))
- herbicidal effect on J: blackgrass (criteria 0-5) (blackgrass [22]; [28]): 4 (Herbicidal rate of 70% or more and less than 90%)
- herbicidal effect on K: Italian ryegrass (criteria 0-5) (Italian ryegrass [23]; [28]): 3 (Herbicidal rate of 40% or more and less than 70%)
- J: blackgrass, herbicidal effect rating (blackgrass [24]): 0 (Herbicidal rate of 5% or less (almost no effect))
- herbicidal effect on Q: false cleavers (criteria 0-5) (false cleavers [25]; [28]): 4 (Herbicidal rate of 70% or more and less than 90%)
- G: green foxtail, herbicidal effect rating (green foxtail [26]): 0 (Herbicidal rate of 5% or less (almost no effect))
- herbicidal effect on O: lambsquarters (criteria 0-5) (lambsquarters [27]; [28]): 3 (Herbicidal rate of 40% or more and less than 70%)

SMILES: Cc1nn(C)c(=O)c(-c2c(-c3ccc(F)cc3)sc3cc(F)ccc23)c1O [3-001]
- herbicidal effect, H: barnyard grass (barnyard grass [1]): 4 (Herbicidal rate of 70% or more and less than 90%)
- herbicidal effect, M: velvetleaf (velvetleaf [2]): 0 (Herbicidal rate of 5% or less (almost no effect))
- herbicidal effect, K: Italian ryegrass (Italian ryegrass [3]): 5 (Herbicidal rate of 90% or more (almost completely withered))
- G: green foxtail, herbicidal effect grade (green foxtail [4]; three weeks after application): 5 (Herbicidal rate of 90% or more (almost completely withered))
- herbicidal effect, N: redroot pigweed (redroot pigweed [5]): 5 (Herbicidal rate of 90% or more (almost completely withered))
- herbicidal effect, R: persian speedwell (persian speedwell [6]): 4 (Herbicidal rate of 70% or more and less than 90%)
- P: chickweed, herbicidal effect grade (chickweed [7]; three weeks after application): 5 (Herbicidal rate of 90% or more (almost completely withered))
- herbicidal effect, P: chickweed (chickweed [8]): 5 (Herbicidal rate of 90% or more (almost completely withered))
- H: barnyard grass, herbicidal effect grade (barnyard grass [9]; three weeks after application): 5 (Herbicidal rate of 90% or more (almost completely withered))
- M: velvetleaf, herbicidal effect grade (velvetleaf [10]; three weeks after application): 5 (Herbicidal rate of 90% or more (almost completely withered))
- herbicidal effect on D: Chinese sprangletop (Chinese sprangletop): 5 (Herbicidal rate of 90% or more (almost completely withered))
- N: redroot pigweed, herbicidal effect grade (redroot pigweed [11]; three weeks after application): 5 (Herbicidal rate of 90% or more (almost completely withered))
- herbicidal effect, L: windgrass (windgrass [12]): 4 (Herbicidal rate of 70% or more and less than 90%)
- herbicidal effect, I: wild oat (wild oat [13]): 4 (Herbicidal rate of 70% or more and less than 90%)
- herbicidal effect, O: lambsquarters (lambsquarters [14]): 5 (Herbicidal rate of 90% or more (almost completely withered))
- L: windgrass, herbicidal effect grade (windgrass [15]; three weeks after application): 5 (Herbicidal rate of 90% or more (almost completely withered))
- herbicidal effect, Q: false cleavers (false cleavers [16]): 3 (Herbicidal rate of 40% or more and less than 70%)
- R: persian speedwell, herbicidal effect grade (persian speedwell [17]; three weeks after application): 5 (Herbicidal rate of 90% or more (almost completely withered))
- herbicidal effect, F: southern crabgrass (southern crabgrass [18]): 5 (Herbicidal rate of 90% or more (almost completely withered))
- I: wild oat, herbicidal effect grade (wild oat [19]; three weeks after application): 5 (Herbicidal rate of 90% or more (almost completely withered))
- herbicidal effect on H: barnyard grass (barnyard grass [20]): 5 (Herbicidal rate of 90% or more (almost completely withered))
- herbicidal effect on E: rice flat sedge (rice flat sedge): 5 (Herbicidal rate of 90% or more (almost completely withered))
- F: southern crabgrass, herbicidal effect grade (southern crabgrass [21]; three weeks after application): 5 (Herbicidal rate of 90% or more (almost completely withered))
- J: blackgrass, herbicidal effect grade (blackgrass [22]; three weeks after application): 5 (Herbicidal rate of 90% or more (almost completely withered))
- K: Italian ryegrass, herbicidal effect grade (Italian ryegrass [23]; three weeks after application): 5 (Herbicidal rate of 90% or more (almost completely withered))
- herbicidal effect, J: blackgrass (blackgrass [24]): 3 (Herbicidal rate of 40% or more and less than 70%)
- Q: false cleavers, herbicidal effect grade (false cleavers [25]; three weeks after application): 5 (Herbicidal rate of 90% or more (almost completely withered))
- herbicidal effect, G: green foxtail (green foxtail [26]): 4 (Herbicidal rate of 70% or more and less than 90%)
- O: lambsquarters, herbicidal effect grade (lambsquarters [27]; three weeks after application): 5 (Herbicidal rate of 90% or more (almost completely withered))
